Experiments:
[1] = tested on: Human CD34+ cord blood (CB) cells; test: CD34+ activity assessment (7-day expansion of pre-expanded CD34+ cells, flow cytometry); assay type: cell-based; settings: concentration at which compound/vehicle ratio of CD34+ cell number is >= 1.5, 7 days, with 35 nM UM0128171
AhR = target: T1, AhR (Homo sapiens, UniProt P35869); test: Inhibition of AhR-mediated gene transcription (HEK-XRE 11.1 luciferase reporter, MeBIO induction); assay type: cell-based; settings: HEK-XRE 11.1 cells, MeBIO 0.1 nM, luminescence after 24 hours
T1 construct: One of the resultant clones was named HEK-XRE 11.1, and used in the reporter gene assays; endogenous in cells; host or cells: HEK-XRE 11.1 (HEK cells stably carrying the AhR-responsive luciferase reporter X4-4.27 and phRL-CMV)
T1 sequence (P35869 11-848): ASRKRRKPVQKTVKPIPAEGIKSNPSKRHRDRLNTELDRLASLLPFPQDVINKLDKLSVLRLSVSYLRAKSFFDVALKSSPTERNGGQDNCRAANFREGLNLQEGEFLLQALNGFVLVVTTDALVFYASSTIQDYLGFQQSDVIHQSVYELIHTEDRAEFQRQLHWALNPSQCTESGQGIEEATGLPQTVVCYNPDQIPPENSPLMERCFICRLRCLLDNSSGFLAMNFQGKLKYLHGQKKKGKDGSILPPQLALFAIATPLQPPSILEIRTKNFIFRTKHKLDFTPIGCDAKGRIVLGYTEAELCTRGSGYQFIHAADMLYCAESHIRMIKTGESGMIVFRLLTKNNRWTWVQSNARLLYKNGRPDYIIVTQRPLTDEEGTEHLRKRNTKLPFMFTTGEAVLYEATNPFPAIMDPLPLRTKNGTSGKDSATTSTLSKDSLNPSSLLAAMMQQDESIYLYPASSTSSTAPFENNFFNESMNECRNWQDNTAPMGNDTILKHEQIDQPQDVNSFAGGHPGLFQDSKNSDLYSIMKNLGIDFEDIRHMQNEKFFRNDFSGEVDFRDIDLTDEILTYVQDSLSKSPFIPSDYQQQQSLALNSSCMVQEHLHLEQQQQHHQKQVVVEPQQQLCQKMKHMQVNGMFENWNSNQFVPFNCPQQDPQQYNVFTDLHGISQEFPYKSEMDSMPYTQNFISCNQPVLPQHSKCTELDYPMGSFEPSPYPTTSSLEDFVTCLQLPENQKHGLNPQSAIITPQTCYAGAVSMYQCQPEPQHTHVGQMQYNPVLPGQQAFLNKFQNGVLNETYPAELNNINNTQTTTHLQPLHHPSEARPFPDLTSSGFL
Method in brief: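 HEK-XRE 11.1 cells, stably carrying an AhR-responsive firefly luciferase reporter, were stimulated with 0.1 nM MeBIO and given compounds in 8-point 1:3 serial dilutions from 10 mM (stock-range figure) in duplicate. Luminescence was read after 24 h culture without Renilla normalisation. Dose-response curves were fitted by nonlinear regression.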

[2] = tested on: Human CD34+ cord blood (CB) cells; test: Assessment of engraftment and myeloid vs lymphoid lineage contribution in vivo; set-up: species or system NSG mice
[3] = tested on: Human CD34+ cord blood (CB) cells; test: Assessment of cell composition in vitro (7-day culture of CB CD34+ cells); settings: for expansion of CD34+CD45RA+ cells: alone or in combination with UM171, 7 days, FIGS. 1B, 1C and 1D; for overall percentage of CD34+ cells in cultures: combined use with UM171, 7 days, FIG. 1A right panel and FIG. 1D; for percentage of Dendritic Cells and Mast Cells: combined use with UM171, compared to Compounds used alone, FIG. 1D

Structure (SMILES) | EC1.5 ([1]; Table 1) | IC50 (AhR; Table 1) | further results
Nc1c(C(=O)Nc2ccccc2)sc2nc3c(cc12)CCC3 [Compound 1001] | <100 nM | < 50 nM | engraftment of expanded CB cells in the long term (12 and 20 weeks post transplantation) ([2]; CB cells expanded 7 days, alone or in combination with UM171, NSG mice bone marrow, FIG. 2A): engrafted with higher efficiency in the long term; contribution of lymphoid lineage ([2]; engrafted human CB cells in NSG mice, FIG. 2B): greatly increased; number of CD34+ cells in CB cultures ([3]; 7 days culture, compared to other conditions, FIG. 1A middle): increases the number of CD34+ cells; expansion of CD34+CD45RA+ cells [3]: favors the expansion of CD34+CD45RA+ cells; overall percentage of CD34+ cells in cultures [3]: increased the overall percentage of CD34+ cells; percentage of Dendritic Cells and Mast Cells [3]: increased the percentage of Dendritic Cells and Mast Cells
COc1ccc(NC(=O)c2sc3ncc(C)cc3c2N)cc1 [Compound 1114] | <100 nM | < 50 nM | expansion of CD34+CD45RA+ cells [3]: favors the expansion of CD34+CD45RA+ cells; overall percentage of CD34+ cells in cultures [3]: increased the overall percentage of CD34+ cells; percentage of Dendritic Cells and Mast Cells [3]: increased the percentage of Dendritic Cells and Mast Cells
Nc1c(C(=O)Nc2cccc(Cl)c2)sc2ccc(C(F)(F)F)cc12 [Compound 1144] | >5000 nM | < 50 nM | 
Cc1cccc(NC(=O)c2sc3ccc(C(F)(F)F)cc3c2N)c1 [Compound 1145] | >5000 nM | 50 to 500 nM | 
Nc1c(C(=O)Nc2ccc3c(c2)OCCO3)sc2ccc(C(F)(F)F)cc12 [Compound 1146] | >5000 nM | 50 to 500 nM | 
CCOc1ccc(NC(=O)c2sc3ccc(C(F)(F)F)cc3c2N)cc1 [Compound 1147] | >5000 nM | 50 to 500 nM | 
CSc1ccc(NC(=O)c2sc3ccc(C(F)(F)F)cc3c2N)cc1 [Compound 1148] | 100 to 1000 nM | 50 to 500 nM | 
Cc1cnc2sc(C(=O)Nc3ccc(OC(F)(F)F)cc3)c(N)c2c1 [Compound 1149] | 100 to 1000 nM | < 50 nM | 
Cc1cnc2sc(C(=O)Nc3ccsc3)c(N)c2c1 [Compound 1150] | 100 to 1000 nM | < 50 nM | 
Cc1ccc2sc(C(=O)Nc3ccc(OC(F)(F)F)cc3)c(N)c2c1 [Compound 1151] | >5000 nM | 50 to 500 nM | 
Nc1c(C(=O)Nc2ccsc2)sc2ccc(C(F)(F)F)cc12 [Compound 1152] | >5000 nM | < 50 nM | 
Nc1c(C(=O)Nc2ccc(F)cc2)oc2ncc(C(F)(F)F)cc12 [Compound 1154] |  |  | EC1.5 ([1]; Table 2): 100 to 1000 nM; IC50 (AhR; Table 2): < 50 nM

From patent US11696928B2, “Compounds and use thereof in the expansion of stem cells and/or progenitor cells” (UNIVERSITE DE MONTREAL, priority 2017, dated 2023)
